The values that follow are results of earlier work, collected in article PMC5664587 (Fluids and Barriers of the CNS, 2017).

The conditions of the data set: brain homogenate.

Take `CC(C)NCC(O)COc1cccc2ccccc12` (stereo not shown) [propranolol]: the “fu,brain, previously reported” value is reported as 0.029.
